Data taken from ChEMBL document CHEMBL1128060, “Deoxypseudophrynaminol: a novel antibacterial alkaloid” (1995).
Values after ≈ are worked out from the molar mass of the structure shown. Active and inactive are the calls of the source. The rule behind the calls is not given here.

Assays:
Enterococcus faecalis [1] = assay: Minimum inhibitory concentration against growth of patient isolated vancomycin-resistant Enterococcus faecalis ATCC 51299 (VRE2); no inhibition; assay type: functional, organism-based
Staphylococcus aureus [2] = assay: Minimum inhibitory concentration against growth of patient isolated methicillin-resistant Staphylococcus aureus (MRSA2); no inhibition; assay type: functional, organism-based
Enterococcus faecalis [3] = assay: Minimum inhibitory concentration against growth of patient isolated vancomycin-resistant Enterococcus faecalis ATCC 51299 (VRE2); assay type: functional
Escherichia coli = assay: Minimum inhibitory concentration against growth of […] Escherichia coli […]; assay type: functional
Staphylococcus aureus [4] = assay: Minimum inhibitory concentration against growth of patient isolated methicillin-resistant Staphylococcus aureus (MRSA1); assay type: functional
Enterococcus faecium = assay: Minimum inhibitory concentration against growth of patient isolated vancomycin-resistant Enterococcus faecium (VRE1); assay type: functional
Staphylococcus aureus [5] = assay: Minimum inhibitory concentration against growth of patient isolated methicillin-resistant Staphylococcus aureus (MRSA2); assay type: functional

SMILES	MIC (Enterococcus faecalis [1])	MIC (Staphylococcus aureus [2])	MIC (Enterococcus faecalis [3])	MIC (Escherichia coli)	MIC (Staphylococcus aureus [4])	MIC (Enterococcus faecium)	MIC (Staphylococcus aureus [5])
CC(C)=CCN1c2ccccc2C2(CC=C(C)C)CCN(C=O)C12 (configuration not stated)	inactive	inactive					
CC(C)=CCC12CCN(C)C1Nc1ccccc12 (configuration not stated)			40 µg/mL (≈ 165 µM)	160 µg/mL (≈ 660 µM)	40 µg/mL (≈ 165 µM)	20 µg/mL (≈ 82.5 µM)	40 µg/mL (≈ 165 µM)
